The source of these data is patent US20170210738A1, “GLUCOSE TRANSPORT INHIBITORS” (Bayer Pharma Aktiengesellschaft, priority 2014, published 2017).

Assay [1] addresses T1, GLUT2 (Homo sapiens, UniProt P11168).
T1 construct: host or cells: DLD1 or CHO-K1
T1 sequence (P11168 1-524): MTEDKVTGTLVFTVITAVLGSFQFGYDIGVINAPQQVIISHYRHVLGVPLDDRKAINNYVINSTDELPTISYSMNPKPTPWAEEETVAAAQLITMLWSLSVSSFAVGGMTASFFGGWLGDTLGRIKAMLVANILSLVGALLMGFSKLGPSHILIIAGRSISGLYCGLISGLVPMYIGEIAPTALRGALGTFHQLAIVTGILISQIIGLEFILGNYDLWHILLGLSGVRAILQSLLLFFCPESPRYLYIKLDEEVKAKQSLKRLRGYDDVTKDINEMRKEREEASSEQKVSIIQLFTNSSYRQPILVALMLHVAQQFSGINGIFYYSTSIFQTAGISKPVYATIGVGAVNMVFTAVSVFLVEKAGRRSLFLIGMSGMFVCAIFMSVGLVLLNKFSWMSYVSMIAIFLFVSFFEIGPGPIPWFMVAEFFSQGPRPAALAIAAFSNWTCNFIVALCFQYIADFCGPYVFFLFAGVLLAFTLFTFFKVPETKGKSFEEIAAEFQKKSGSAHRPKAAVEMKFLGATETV
Nature of the assay: Indirect measurement of GLUT activity by quantification of intracellular ATP levels: fructose induced ATP increase (GLUT2 inhibition). It is filed as cell-based. The note with it: 30 mM fructose, 1 uM Rotenone, 15 min; CellTiter-Glo ATP levels; DLD1 or CHO-K1 cells; read-out: IC50 regarding fructose induced ATP increase (GLUT2 inhibition). From the text: (§1) Indirect Measurement of GLUT Activity by Quantification of Intracellular ATP Levels
(§2) It is well known that a combination of small-molecule inhibitors of mitochondrial electron transport chain and glucose catabolism synergistically suppress ATP production and impair cellular viability (Ulanovskaya et al., 2008, 2011; Liu, et al. 2001). We therefore used DLD1 or CHO-K1 cells in combination with an oxidative phosphorylation inhibitor to identify GLUT inhibitors. Cell lines were maintained in DMEM medium supplemented with 10% FCS and 1% Penicillin-Streptomycin solution and 2% Glutamax. The cells were treated with trypsin and seeded into 384 plates at a density of 4000 cells/well. The cells were then cultured overnight in glucose free media containing 1% FCS to reduce intracellular ATP levels. After 24 h the cells were incubated at 37° C. containing the appropriate glucose or in case of GLUT2 fructose concentration (1 mM and 30 mM respectively) with or without compounds and 1 uM Rotenone for 15 min. The CellTiter-Glo® Luminescent Cell Viability Assay from Promega was then used to measure ATP levels. Compounds able to reduce the ATP levels within 15 min of glucose application were considered to be glucose uptake inhibitors.
On the technique in general: ATP-based viability assays read luminescence as a measure of living cells.

Assay [2] has as its target T2, GLUT1 (Homo sapiens, UniProt P11166).
T2 construct: endogenous in cells; host or cells: DLD1 or CHO-K1
T2 sequence (P11166 1-492): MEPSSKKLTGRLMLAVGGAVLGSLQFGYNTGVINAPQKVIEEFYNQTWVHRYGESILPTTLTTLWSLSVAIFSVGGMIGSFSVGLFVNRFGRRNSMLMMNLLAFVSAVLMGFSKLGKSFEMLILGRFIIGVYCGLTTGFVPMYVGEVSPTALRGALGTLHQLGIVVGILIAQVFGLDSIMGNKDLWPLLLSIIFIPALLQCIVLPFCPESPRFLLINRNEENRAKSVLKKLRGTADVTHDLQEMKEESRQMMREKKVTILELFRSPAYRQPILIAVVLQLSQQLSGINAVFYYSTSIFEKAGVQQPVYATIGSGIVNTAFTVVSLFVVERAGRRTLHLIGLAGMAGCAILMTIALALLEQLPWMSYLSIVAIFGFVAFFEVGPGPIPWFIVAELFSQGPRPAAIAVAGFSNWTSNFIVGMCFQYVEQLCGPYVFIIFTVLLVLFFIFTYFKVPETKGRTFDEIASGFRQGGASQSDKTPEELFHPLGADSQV
In words: Indirect measurement of GLUT activity by quantification of intracellular ATP levels: glucose induced ATP increase (GLUT1 inhibition). Particulars: DLD1 cells; 1 mM glucose, 1 uM Rotenone, 15 min; CellTiter-Glo ATP levels; IC50 values standardized to cytochalasin B IC50 values; read-out: IC50 regarding glucose induced ATP increase (GLUT1 inhibition). Format: cell-based.
Description: as §1, §2

Structures are written as SMILES.

For the compound `Cc1ccc2nc(C)cc(C(=O)Nc3cnn(Cc4ccc(F)cc4)c3C)c2c1` [Example 1, N-[1-(4-fluorobenzyl)-5-methyl-1H-pyrazol-4-yl]-2,6-dimethylquinoline-4-carboxamide], the half-inhibitory concentration (IC50) is 5990 nM in assay [1] and 9.4 nM in assay [2].
Regarding `COc1cc(C(=O)Nc2cnn(Cc3ccc(C#N)cc3)c2C)c2ccccc2n1` [Example 10, N-[1-(4-cyanobenzyl)-5-methyl-1H-pyrazol-4-yl]-2-methoxyquinoline-4-carboxamide], the IC50 in assay [1] was 1650 nM; in assay [2], 87 nM.
As to `Cc1c(NC(=O)c2cc(C(N)=O)nc3ccccc23)cnn1Cc1ccn(C)n1` [Example 34, N^4-{5-methyl-1-[(1-methyl-1H-pyrazol-3-yl)methyl]-1H-pyrazol-4-yl}quinoline-2,4-dicarboxamide], in assay [2], the IC50 turned out to be 753 nM.
As for `CCc1noc(Cn2ncc(NC(=O)c3cc(C(F)(F)F)nc4ccc(Br)cc34)c2C)n1` [Example 35, 6-bromo-N-{1-[(3-ethyl-1,2,4-oxadiazol-5-yl)methyl]-5-methyl-1H-pyrazol-4-yl}-2-(trifluoromethyl)quinoline-4-carboxamide], the IC50 in assay [2] turned out to be 1200 nM.
With `CNC(=O)c1nc(Cn2ncc(NC(=O)c3cc(C(N)=O)nc4ccccc34)c2C)no1` [Example 36, N^4-(5-methyl-1-{[5-(methylcarbamoyl)-1,2,4-oxadiazol-3-yl]methyl}-1H-pyrazol-4-yl)quinoline-2,4-dicarboxamide], the IC50 in assay [2] amounted to 2220 nM.
For `CCc1noc(Cn2ncc(NC(=O)c3cc(C(N)=O)nc4ccccc34)c2C)n1` [Example 37, N^4-{1-[(3-ethyl-1,2,4-oxadiazol-5-yl)methyl]-5-methyl-1H-pyrazol-4-yl}quinoline-2,4-dicarboxamide], the IC50 in assay [2] was found to be 1920 nM.
As to `CCS(=O)(=O)N1CCC(Cn2ncc(NC(=O)c3cc(C(F)(F)F)nc4ccc(Br)cc34)c2C)CC1` [Example 38, 6-bromo-N-(1-{[1-(ethylsulfonyl)piperidin-4-yl]methyl}-5-methyl-1H-pyrazol-4-yl)-2-(trifluoromethyl)quinoline-4-carboxamide], the IC50 in assay [2] was 615 nM.
Regarding `Cc1nc(Cn2ncc(NC(=O)c3cc(C(N)=O)nc4ccccc34)c2C)cs1` [Example 39, N^4-{5-methyl-1-[(2-methyl-1,3-thiazol-4-yl)methyl]-1H-pyrazol-4-yl}quinoline-2,4-dicarboxamide], the 50% inhibitory concentration (IC50) in assay [2] is 517 nM.
Take `CNC(=O)c1nc(Cn2ncc(NC(=O)c3cc(C(F)(F)F)nc4ccc(Br)cc34)c2C)no1` [Example 40, 6-bromo-N-(5-methyl-1-{[5-(methylcarbamoyl)-1,2,4-oxadiazol-3-yl]methyl}-1H-pyrazol-4-yl)-2-(trifluoromethyl)quinoline-4-carboxamide]: in assay [2], the concentration for half-maximal inhibition (IC50) amounted to 456 nM.
In the case of `Cc1nc(Cn2ncc(NC(=O)c3cc(C(F)(F)F)nc4ccc(Br)cc34)c2C)cs1` [Example 41, 6-bromo-N-{5-methyl-1-[(2-methyl-1,3-thiazol-4-yl)methyl]-1H-pyrazol-4-yl}-2-(trifluoromethyl)quinoline-4-carboxamide], in assay [2], the half-inhibitory concentration (IC50) turned out to be 284 nM.
Still for that read-out and setting: then `Cc1cc(Cn2ncc(NC(=O)c3cc(C(F)(F)F)nc4ccc(Br)cc34)c2C)no1` [Example 42, 6-bromo-N-{5-methyl-1-[(5-methyl-1,2-oxazol-3-yl)methyl]-1H-pyrazol-4-yl}-2-(trifluoromethyl)quinoline-4-carboxamide], with 1130 nM.
With `CCS(=O)(=O)N1CCC(Cn2ncc(NC(=O)c3cc(C(N)=O)nc4ccccc34)c2C)CC1` [Example 43, N^4-(1-{[1-(ethylsulfonyl)piperidin-4-yl]methyl}-5-methyl-1H-pyrazol-4-yl)quinoline-2,4-dicarboxamide], the 50% inhibitory concentration (IC50) in assay [2] was 396 nM.
As to `Cc1c(NC(=O)c2cc(C(F)(F)F)nc3ccc(Br)cc23)cnn1Cc1ccn(C)n1` [Example 44, 6-bromo-N-{5-methyl-1-[(1-methyl-1H-pyrazol-3-yl)methyl]-1H-pyrazol-4-yl}-2-(trifluoromethyl)quinoline-4-carboxamide], the half-maximal inhibitory concentration (IC50) in assay [2] turned out to be 531 nM.
As for `Cc1cc(Cn2ncc(NC(=O)c3cc(C(N)=O)nc4ccccc34)c2C)no1` [Example 45, N^4-{5-methyl-1-[(5-methyl-1,2-oxazol-3-yl)methyl]-1H-pyrazol-4-yl}quinoline-2,4-dicarboxamide], the concentration for half-maximal inhibition (IC50) in assay [2] was found to be 222 nM.

The IC50 is the concentration needed to halve the response being measured.
